Assay [1] relates to pks13-TetON +ATc (Pks13-hypermorph). It is filed as cell-based, Mycobacterium tuberculosis.
A further assay relates to WT H37Rv. Briefly: microbe, parasite or virus in culture. In kind it is cell-based, Mycobacterium tuberculosis. Particulars: for MIC: Mycobacterium tuberculosis, H37RV.
Assay [2] has as its system pks13-TetON -ATc (hypomorph). In kind it is cell-based, Mycobacterium tuberculosis.
Another assay addresses Pks13-TE (Mycobacterium tuberculosis, UniProt I6X8D2). Kind of assay: biochemical. It is filed as binding.

In brackets after ≈: the same amount, converted by molar mass. Where two headings read alike, the source gives them in different places. Some results are limits rather than exact numbers.

The term IC50 denotes the concentration that inhibits the measured activity by half.

Chain of Pks13-TE (I6X8D2 1451-1733 limits assumed): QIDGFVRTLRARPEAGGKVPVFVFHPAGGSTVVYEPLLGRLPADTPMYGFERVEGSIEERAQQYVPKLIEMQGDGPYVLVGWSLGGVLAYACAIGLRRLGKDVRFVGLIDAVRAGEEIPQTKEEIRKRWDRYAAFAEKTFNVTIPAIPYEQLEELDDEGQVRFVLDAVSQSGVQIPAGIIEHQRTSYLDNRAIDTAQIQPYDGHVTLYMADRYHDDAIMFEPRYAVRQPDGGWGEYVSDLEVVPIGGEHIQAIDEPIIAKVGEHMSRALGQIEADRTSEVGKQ

`COc1ccc(OC)c(-c2ccc(-c3cn(CCc4ccc5nn(C)cc5c4)nn3)cn2)c1` [X21544]: the “Hypermorph MIC fold shift (+ATc/WT)” value in assay [1] came to 1.5 fold. Moreover, the MIC in the assay with WT H37Rv (read-out: WT H37Rv MIC) amounted to 0.47 µM (≈ 0.207 µg/mL). Besides, the “Hypomorph MIC fold shift (WT/-ATc)” value in assay [2] stood at 2.7 fold. Also, the IC50 at Pks13-TE (read-out: IC50) turned out to be 0.55 µM.

Consider `COc1ccc(OC)c(-c2ccc(-c3cn(CCc4ccc(S(=O)(=O)N(C)C)cc4)nn3)cn2)c1` [X21545], for which the “Hypermorph MIC fold shift (+ATc/WT)” value in assay [1] came out at 2.8 fold. The MIC in the assay with WT H37Rv (read-out: WT H37Rv MIC) is 1.3 µM (≈ 0.642 µg/mL). In addition, in assay [2], the “Hypomorph MIC fold shift (WT/-ATc)” value turned out to be 3.2 fold. Further, the 50% inhibitory concentration (IC50) at Pks13-TE (read-out: IC50) stood at 0.53 µM.

For the compound `Cc1ccccc1-c1ncc(-c2cn(CCc3ccc(C(=O)N(C)C)cc3)nn2)s1` [X21546], the MIC in the assay on WT H37Rv (read-out: WT H37Rv MIC (uM)) worked out at 18 µM (≈ 7.52 µg/mL). Also, the “Hypomorph MIC fold shift (WT/-ATc)” value in assay [2] was 1.9 fold. Also, it took 0.37 µM to reach half-maximal inhibition on Pks13-TE (IC50 (uM)) (IC50).

`COc1ccc(OC)c(-n2ncc(-c3cn(CCc4ccc(C(=O)N(C)C)cc4)nn3)c2C)c1` [X21558]: the 50% inhibitory concentration (IC50) on Pks13-TE (read-out: IC50) was over 20 µM.

On to `Cc1c(-c2cn(CCc3ccc(C(=O)N(C)C)cc3)nn2)cnn1-c1ccccc1F` [X21774], for which, in the assay with WT H37Rv (read-out: WT H37Rv MIC), the MIC is over 125 µM. For the same compound, the IC50 at Pks13-TE (read-out: IC50) is over 10 µM.

As to `Cc1cc(C(=O)NCc2ccccc2)nc(N2CCC(C(=O)N3CCN(C(=O)c4ccc(-n5nc(C)cc5C)nc4)CC3)CC2)n1` [X22239], in assay [1], the “Hypermorph MIC fold shift (+ATc/WT)” value is on record as 3.7 fold. The MIC in the assay with WT H37Rv (read-out: WT H37Rv MIC) is 0.066 µM (≈ 0.041 µg/mL). The “Hypomorph MIC fold shift (WT/-ATc)” value in assay [2] turned out to be 1.9 fold. For the same compound, at Pks13-TE (read-out: IC50), the IC50 is 0.64 µM.

For the compound `Cc1cc(C(=O)NCc2ccccc2)nc(N2CCC(C(=O)N3CCN(C(=O)c4ccc5nc(C)ccc5c4)CC3)CC2)n1` [X22275], the “Hypermorph MIC fold shift (+ATc/WT)” value in assay [1] amounted to 2.7 fold. Further, in the assay with WT H37Rv (read-out: WT H37Rv MIC), the MIC is 0.048 µM (≈ 0.0284 µg/mL). Moreover, the “Hypomorph MIC fold shift (WT/-ATc)” value in assay [2] was determined as 2.3 fold. Besides, on Pks13-TE (read-out: IC50), the IC50 was 0.62 µM.

In the case of `COc1ccn2nc(C(=O)N3CCN(C(=O)C4CCN(c5nc(C)cc(C(=O)N6CCCC6)n5)CC4)CC3)cc2c1` [X22276], the MIC in the assay with WT H37Rv (read-out: WT H37Rv MIC) was over 125 µM. The IC50 at Pks13-TE (read-out: IC50) is over 10 µM.

As to `Cc1cc(CNC(=O)c2cc(C)nc(N3CCC(C(=O)N4CCN(C(=O)c5ccc6nc(C)ccc6c5)CC4)CC3)n2)cc(C)n1` [X22277], the “Hypermorph MIC fold shift (+ATc/WT)” value in assay [1] turned out to be 1.8 fold. In addition, in the assay with WT H37Rv (read-out: WT H37Rv MIC), the MIC was determined as 0.54 µM (≈ 0.335 µg/mL). Also, the “Hypomorph MIC fold shift (WT/-ATc)” value in assay [2] stood at 2.6 fold. Also, the IC50 at Pks13-TE (read-out: IC50) turned out to be 0.53 µM.

Regarding `COc1ccn2nc(C(=O)N3CCN(C(=O)C4CCN(c5nc(C)cc(C(F)(F)F)n5)CC4)CC3)cc2c1` [X22279], in the assay with WT H37Rv (read-out: WT H37Rv MIC), the MIC was over 125 µM. The IC50 on Pks13-TE (read-out: IC50) was over 10 µM.

For the compound `CNC(=O)c1cc(C)nc(N2CCC(C(=O)N3CCCN(C(=O)c4cnn5ccc(OC)cc45)CC3)CC2)n1` [X22280], the MIC in the assay on WT H37Rv (read-out: WT H37Rv MIC) is over 125 µM. Further, the half-maximal inhibitory concentration (IC50) on Pks13-TE (read-out: IC50) is over 10 µM.

As for `COc1ccc(F)cc1-c1ccc(-c2cn(Cc3ccncc3)nn2)cn1` [X22307], the “WT H37Rv MIC” value with WT H37Rv was over 125 µM. For the same compound, the 50% inhibitory concentration (IC50) on Pks13-TE (read-out: IC50) was over 10 µM.

For the compound `Cc1ccc(F)cc1-c1ccc(-c2cn(CCc3ccc4c(cnn4C)c3)nn2)cn1` [X22309], in the assay with WT H37Rv (read-out: WT H37Rv MIC), the MIC was over 125 µM. For the same compound, on Pks13-TE (read-out: IC50), the IC50 turned out to be 0.62 µM.

As for `Cn1ncc2cc(CCn3cc(-c4ccc(-c5cc(C(F)(F)F)ccc5F)nc4)nn3)ccc21` [X22311], the MIC in the assay on WT H37Rv (read-out: WT H37Rv MIC) is over 125 µM. Besides, the IC50 on Pks13-TE (read-out: IC50) is 0.77 µM.

Take `Cn1ncc2cc(CCn3cc(-c4ccc(N5CC(F)(F)C5)nc4)nn3)ccc21` [X22317]: the MIC with WT H37Rv (read-out: WT H37Rv MIC) is over 125 µM. At Pks13-TE (read-out: IC50), the IC50 is over 10 µM.

As to `Cn1ncc2cc(CCn3cc(-c4ccc(OCc5ccccc5)nc4)nn3)ccc21` [X22346], the “WT H37Rv MIC” value in the assay with WT H37Rv was over 125 µM. Also, the half-inhibitory concentration (IC50) at Pks13-TE (read-out: IC50) is over 10 µM.

Consider `COc1ccc(OC)c(-c2ccc(-n3cc(C4CN(c5ccc(C(=O)N(C)C)cc5)C4)nn3)cn2)c1` [X23436], for which the IC50 at Pks13-TE (read-out: IC50) was 0.37 µM.

For `COc1ccc(OC)c(-c2ccc(-c3cn(C4CN(c5ccc6nn(C)cc6c5)C4)nn3)cn2)c1` [X23479], at Pks13-TE (read-out: IC50), the concentration for half-maximal inhibition (IC50) was determined as 0.46 µM.

As for `COc1ccc(F)cc1-c1ccc(-c2cn(C3CN(c4ccc(C(=O)N(C)C)cc4)C3)nn2)cn1` [X23488], the IC50 on Pks13-TE (read-out: IC50) was 0.62 µM.

`COc1ccc(OC)c(-c2ccc(-c3cn(C4CCN(c5ccc(C(=O)N(C)C)cc5)C4)nn3)cn2)c1` (stereo not shown) [X23546]: at Pks13-TE (read-out: IC50), the IC50 stood at 0.65 µM.

Source of the values: paper PMC11091879, “Inhibitors of the Thioesterase Activity of Mycobacterium tuberculosis Pks13 Discovered Using DNA-Encoded Chemical Library Screening” (ACS Infectious Diseases, 2024).
